According to patent US8519124B2, “Chemokine receptor antagonists and use thereof” (Ono Pharmaceutical Co., Ltd., priority 2005, dated 2013):

Legend:
[1] = Measurement of maximum plasma level (Cmax) and bioavailability (BA); assay type: in vivo; settings: male, Crl:CD(SD), po; rat plasma; orally administered solution 10 mg/kg, fasting
Description: Measurement of Maximum Plasma Level (CMax) and Bioavailability (BA)
A test compound is weighed, dissolved in Solutol (trade name; manufactured by BASF-TAKEDA Vitamins Ltd.)/propylene glycol=7/3 which is heated to 60° C. and adjusted to 20 mg/mL; thereafter, the test compound is diluted by 10 times with distilled water for injection, and further diluted by 2 times with saline solution, by which intravenously administered solution is eventually made. The test compound is weighed, dissolved in Solutol (trade name; manufactured by BASF-TAKEDA Vitamins Ltd.)/propylene glycol=7/3 which is heated to 60° C., and adjusted to 20 mg/mL; thereafter, the test compound is diluted by 10 times with distilled water for injection, by which orally administered solution is eventually made. Intravenous administration is performed by rapid single administration (n=3) of intravenously administered solution (1 mg/kg) from the tail vein of Crl:CD(SD) Rat (male, manufactured by CHARLES RIVER LABORATORIES JAPAN, INC). Oral administration is performed by forced administration (n=3) of orally administered solution (10 mg/kg) into the stomach of Crl:CD(SD) Rat (male, manufactured by CHARLES RIVER LABORATORIES JAPAN, INC.) using a sonde. The administration is conducted under fasting conditions; water is freely ingested. A 0.35 mL blood sample is taken from cervical vein by using Heparinized Syringe at 15 minutes, 30 minutes, 1 hour, 2 hours, 4 hours, 6 hours, 8 hours, and 24 hours after administration. The obtained blood is stored in ice, and after centrifugation at 12,000 rpm for 5 minutes, blood plasma is fractionated. The blood plasma is preserved at a temperature of −80° C. The sample of blood plasma preserved at a temperature of −80° C. is dissolved; inner standard solution (100 μL) and acetonitrile (2 mL) are added to the blood plasma sample 100 μL and stirred; and the sample is centrifuged at 2,500 rpm for 10 minutes. After the supernatant is evaporated to dryness by means of a centrifugal concentrator, 67% dimethyl sulfoxide solution (150 μL) is added to the residue and dissolves them again; and 20 μL of the solution is analyzed by means of LC/MS/MS.
The analysis by means of LC/MS/MS should be performed, for example, under the following conditions:
Measurement device: Waters 2795 (manufactured by Waters Corporation)
Analytical column: Unison UK-C18, 3.0 μm particle size, 2.0 mm×30 mm (manufactured by Imtakt Corporation)
Analytical column temperature: Room temperature
Moving bed: 5 mM IPC-PFAA-7 solution/acetonitrile (9/1→1/9)
Measurement device: Quatro micro API (manufactured by Micromass Communications Inc.)
Method for ionization: ES+
Capillary electric potential: 3.30 kV
Source temperature: 120° C.
Desolvation temperature: 350° C.
The monitor ion which was suitable for each sample was selected.
The concentration transition in the rat blood plasma of the test compound is analyzed by means of non-compartment analysis method by using WinNonlin 4.0.1 (manufactured by Pharsight Corporation) to calculate the maximum blood concentration Cmax and the area under the blood concentration curve AUC.
BA is calculated by means of the following formula: BA(%)={(AUCp.o./Dosep.o.)/(AUCi.v./Dosei.v.)}×100
AUCp.o.: AUC in oral administration
Dosep.o.: Amount of the drug orally administered
AUCi.v.: AUC in intravenous administration
Dosei.v.: Amount of the drug intravenously administered

[2] = tested on: DOPA liposome (artificial lipid membrane); assay: Artificial lipid membrane binding by using Biacore S51 system; settings: 50 μM compound; for Judgement (phospholipidosis inductive effect): DOPA liposome; for Corrected value of binding response (RU): DOPA liposome on Sensor Chip L1, 37° C., PBS/5% DMSO (pH 7.4 or PH 6.0)
Description: Artificial Lipid Membrane Binding Account by Using Biacore (Registered Trademark) S51 System
10 mM of 1,2-Dioleoyl-sn-Glycero-3-Phosphate, Monosodium Salt (hereinafter abbreviated as DOPA) chloroform solution was evaporated to dryness by means of an aspirator, and 0.6 mL of PBS/5% dimethyl sulfoxide (hereinafter abbreviated as DMSO) was added. The chloroform solution was fully suspended by means of a vortex mixer, and the freezing and thawing were repeated for 5 times. Liposome was created by means of a liposome adjustment instrument (manufactured by Avestin Inc.) and 2 syringes, and was diluted to 0.5 mM with PBS/5% DMSO just prior to immobilization.
(ii) Measurement Compound Adjustment
The 38 μL of 1×PBS is added to 2 μL DMSO solution (10 mM), and further the 360 μL 1×PBS/5% DMSO was added; the 50 μM of final concentration in the 1×PBS/5% DMSO was adjusted and measured.
All of the following analysis used Biacore® S51 system; the measurement conditions were set by Biacore S51 Control Soft.
The measurement temperature was set to be 37° C., and the 1×PBS/5% DMSO (pH 7.4 or PH 6.0) was used as a buffer. Series S Sensor Chip L1 was used for a sensor chip. The DOPA was immobilized in one of the measuring spots on the sensor surface, and the central spot was used as a reference.
Immobilization of liposome was conducted at a flow rate of 10 μL/min for about 3 minutes; then the compound was added at a flow rate of 30 μL/min and the interaction was measured. The measurement conditions are as follows:
Assay buffer: PBS/5% DMSO (pH 7.4 or PH 6.0)
Measurement temperature: 37° C.
Sensor chip: Series S Sensor Chip L1
Flow rate: 10 μL/min at the time of the liposome immobilization; 30 μL/min at the time of the measurement of interaction with the compound
Regeneration: 20 mM CHAPS (3-[(3-Cholamidopropyl)dimethylammonio]-1-propanesulfonate), Isopropanol/50 mM sodium hydroxide solution=40/60 (volume ratio) mixture (60 seconds)
The data processing was conducted by means of method of Abdiche et al. (Analytical biochemistry, 328, 233-243 (2004)) by using Biacore S51 Evaluation Soft.
Regarding the value of binding response (RU) in which the value of reference was subtracted, it was divided by a sample molecular weight after minute error of the DMSO concentration included in the sample solution was corrected. In addition, the value obtained here was divided by an amount of capture at the time of the cycle because the value obtained here was proportional to the amount of capture of the liposome; further, the value was multiplied by a million to be considered as a corrected value (Corrected value=1000000)×RU (test compound)/molecular quantity (test compound) RU (liposome)).
Propranolol, Amiodarone, Desipramine, Imipramine and Procaine were added as the controls, and it was recognized that the variation of the binding response was within ca. 10 to 15%.
The compound, in which a value of the binding response after the correction was equal to or more than 150, was determined as positive.

| Compound | Cmax [1] [ng/mL] | Judgement (phospholipidosis inductive effect) [2] | Corrected value of binding response (RU) [2] [RU] |
| --- | --- | --- | --- |
| CC(C)CN1CCC2(CCN(Cc3ccc(C(=O)N(Cc4ncc[nH]4)Cc4ncc[nH]4)cc3)CC2)C1 [Example 8 (113), N,N-bis(1H-imidazol-2-ylmethyl)-4-[(2-isobutyl-2,8-diazaspiro[4.5]dec-8-yl)methyl]benzamide] | 80 | negative | 66.6 |
| CC(C)(C)CN1CCC2(CC1)CCN(C(=O)Cc1ccc(CN(Cc3ncc[nH]3)Cc3ncc[nH]3)cc1)C2 [Example 40 (68), 1-(4-{2-[8-(2,2-dimethylpropyl)-2,8-diazaspiro[4.5]dec-2-yl]-2-oxoethyl}phenyl)-N,N-bis(1H-imidazol-2-ylmethyl)methanamine] | 175 | negative | 77.6 |
| CCC(CC)N1CCC2(CCN(C(=O)c3ccc(CN(Cc4ncc[nH]4)Cc4nccn4C)cc3)C2)CC1 [Example 40 (72), 1-(4-{[8-(1-ethylpropyl)-2,8-diazaspiro[4.5]dec-2-yl]carbonyl}phenyl)-N-(1H-imidazol-2-ylmethyl)-N-[(1-methyl-1H-imidazol-2-yl)methyl]methanamine] | 157 | negative | 72.0 |
| O=C(CC(=O)N1CCC2(CCN(C3CCCCC3)CC2)C1)N1CCC(N(Cc2ncc[nH]2)Cc2ncc[nH]2)CC1 [Example 65 (4), 1-[3-(8-cyclohexyl-2,8-diazaspiro[4.5]dec-2-yl)-3-oxopropanoyl]-N,N-bis(1H-imidazol-2-ylmethyl)-4-piperidinamine] | 420 | negative | 36.0 |
